Source: PubChem BioAssay (NCI)
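48-hour exposure; five concentrations; linearly interpolated endpoints. TGI marks complete inhibition of growth.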

Tests used:
Assay in all cases: NCI anticancer screen, dose series, 48 h
A498 renal = system: A498 renal
A549 NSCLC = system: A549 NSCLC
ACHN renal = system: ACHN renal
CAKI-1 renal = system: CAKI-1 renal
CCRF-CEM leukemia = system: CCRF-CEM leukemia
COLO 205 colon = system: COLO 205 colon
DU-145 prostate = system: DU-145 prostate
EKVX NSCLC = system: EKVX NSCLC
HCC-2998 colon = system: HCC-2998 colon
HCT-116 colon = system: HCT-116 colon
HCT-15 colon = system: HCT-15 colon
HL-60(TB) leukemia = system: HL-60(TB) leukemia
HOP-62 NSCLC = system: HOP-62 NSCLC
HS 578T breast = system: HS 578T breast
HT29 colon = system: HT29 colon
IGROV1 ovarian = system: IGROV1 ovarian
K-562 leukemia = system: K-562 leukemia
LOX IMVI melanoma = system: LOX IMVI melanoma
M14 melanoma = system: M14 melanoma
MALME-3M melanoma = system: MALME-3M melanoma
MCF7 breast = system: MCF7 breast
MDA-MB-231 breast = system: MDA-MB-231 breast
MDA-MB-435 = system: MDA-MB-435
MDA-N = system: MDA-N
MOLT-4 leukemia = system: MOLT-4 leukemia
NCI-H226 lung = system: NCI-H226 lung
NCI-H23 lung = system: NCI-H23 lung
NCI-H460 lung = system: NCI-H460 lung
NCI-H522 lung = system: NCI-H522 lung
NCI/ADR-RES ovarian = system: NCI/ADR-RES ovarian
OVCAR-4 ovarian = system: OVCAR-4 ovarian
OVCAR-5 ovarian = system: OVCAR-5 ovarian
OVCAR-8 ovarian = system: OVCAR-8 ovarian
PC-3 prostate = system: PC-3 prostate
RPMI-8226 leukemia = system: RPMI-8226 leukemia
RXF 393 renal = system: RXF 393 renal
SF-268 CNS = system: SF-268 CNS
SF-539 CNS = system: SF-539 CNS
SK-MEL-2 melanoma = system: SK-MEL-2 melanoma
SK-MEL-28 melanoma = system: SK-MEL-28 melanoma
SK-MEL-5 melanoma = system: SK-MEL-5 melanoma
SK-OV-3 ovarian = system: SK-OV-3 ovarian
SN12C renal = system: SN12C renal
SNB-19 CNS = system: SNB-19 CNS
SNB-75 CNS = system: SNB-75 CNS
SR leukemia = system: SR leukemia
SW-620 colon = system: SW-620 colon
T-47D breast = system: T-47D breast
TK-10 renal = system: TK-10 renal
U251 CNS = system: U251 CNS
UACC-62 melanoma = system: UACC-62 melanoma
UO-31 renal = system: UO-31 renal
786-0 renal = system: 786-0 renal
BT-549 breast = system: BT-549 breast
HOP-92 NSCLC = system: HOP-92 NSCLC
OVCAR-3 ovarian = system: OVCAR-3 ovarian
SF-295 CNS = system: SF-295 CNS

## Cc1nc2[nH]ncn2c(=O)c1CCO
A498 renal
  TGI: > 10 µM
A549 NSCLC
  TGI: > 10 µM
ACHN renal
  TGI: > 10 µM
CAKI-1 renal
  TGI: > 10 µM
CCRF-CEM leukemia
  TGI: > 10 µM
COLO 205 colon
  TGI: > 10 µM
DU-145 prostate
  TGI: > 10 µM
EKVX NSCLC
  TGI: > 10 µM
HCC-2998 colon
  TGI: > 10 µM
HCT-116 colon
  TGI: > 10 µM
HCT-15 colon
  TGI: > 10 µM
HL-60(TB) leukemia
  TGI: > 10 µM
HOP-62 NSCLC
  TGI: > 10 µM
HS 578T breast
  TGI: > 10 µM
HT29 colon
  TGI: > 10 µM
IGROV1 ovarian
  TGI: > 10 µM
K-562 leukemia
  TGI: > 10 µM
LOX IMVI melanoma
  TGI: > 10 µM
M14 melanoma
  TGI: > 10 µM
MALME-3M melanoma
  TGI: > 10 µM
MCF7 breast
  TGI: > 10 µM
MDA-MB-231 breast
  TGI: > 10 µM
MDA-MB-435
  TGI: > 10 µM
MDA-N
  TGI: > 10 µM
MOLT-4 leukemia
  TGI: > 10 µM
NCI-H226 lung
  TGI: > 10 µM
NCI-H23 lung
  TGI: > 10 µM
NCI-H460 lung
  TGI: > 10 µM
NCI-H522 lung
  TGI: > 10 µM
NCI/ADR-RES ovarian
  TGI: > 10 µM
OVCAR-4 ovarian
  TGI: > 10 µM
OVCAR-5 ovarian
  TGI: > 10 µM
OVCAR-8 ovarian
  TGI: > 10 µM
PC-3 prostate
  TGI: > 10 µM
RPMI-8226 leukemia
  TGI: > 10 µM
RXF 393 renal
  TGI: > 10 µM
SF-268 CNS
  TGI: > 10 µM
SF-539 CNS
  TGI: > 10 µM
SK-MEL-2 melanoma
  TGI: > 10 µM
SK-MEL-28 melanoma
  TGI: 7.74 µM
SK-MEL-5 melanoma
  TGI: > 10 µM
SK-OV-3 ovarian
  TGI: > 10 µM
SN12C renal
  TGI: > 10 µM
SNB-19 CNS
  TGI: > 10 µM
SNB-75 CNS
  TGI: > 10 µM
SR leukemia
  TGI: > 10 µM
SW-620 colon
  TGI: > 10 µM
T-47D breast
  TGI: > 10 µM
TK-10 renal
  TGI: > 10 µM
U251 CNS
  TGI: > 10 µM
UACC-62 melanoma
  TGI: > 10 µM
UO-31 renal
  TGI: > 10 µM

## N#Cc1c(-c2ccc(Cl)cc2)c2c(N=Nc3c(O)ccc4ccccc34)[nH]nc2[nH]c1=O
786-0 renal
  TGI: 2.04 µM
A498 renal
  TGI: 0.468 µM
A549 NSCLC
  TGI: 2.3 µM
ACHN renal
  TGI: 0.492 µM
BT-549 breast
  TGI: 0.619 µM
CAKI-1 renal
  TGI: 1.26 µM
COLO 205 colon
  TGI: 2.66 µM
DU-145 prostate
  TGI: 1.07 µM
EKVX NSCLC
  TGI: 2.19 µM
HCC-2998 colon
  TGI: 0.89 µM
HCT-116 colon
  TGI: 1.62 µM
HCT-15 colon
  TGI: 2.09 µM
HOP-62 NSCLC
  TGI: 1.82 µM
HOP-92 NSCLC
  TGI: 0.865 µM
HS 578T breast
  TGI: 3.96 µM
HT29 colon
  TGI: 1.87 µM
IGROV1 ovarian
  TGI: 1.14 µM
K-562 leukemia
  TGI: > 20.7 µM
LOX IMVI melanoma
  TGI: 0.439 µM
M14 melanoma
  TGI: 0.563 µM
MALME-3M melanoma
  TGI: 0.944 µM
MCF7 breast
  TGI: 0.982 µM
MDA-MB-231 breast
  TGI: 1.08 µM
MDA-N
  TGI: 2.08 µM
MOLT-4 leukemia
  TGI: 1.34 µM
NCI-H226 lung
  TGI: 1.93 µM
NCI-H460 lung
  TGI: 0.851 µM
NCI-H522 lung
  TGI: 0.823 µM
NCI/ADR-RES ovarian
  TGI: 0.777 µM
OVCAR-3 ovarian
  TGI: 0.0736 µM
OVCAR-4 ovarian
  TGI: 3.68 µM
OVCAR-5 ovarian
  TGI: 2.73 µM
OVCAR-8 ovarian
  TGI: 1.21 µM
PC-3 prostate
  TGI: 2.05 µM
RXF 393 renal
  TGI: 0.878 µM
SF-268 CNS
  TGI: 1.66 µM
SF-295 CNS
  TGI: 1.18 µM
SF-539 CNS
  TGI: 1.37 µM
SK-MEL-2 melanoma
  TGI: 0.943 µM
SK-MEL-5 melanoma
  TGI: 1.62 µM
SK-OV-3 ovarian
  TGI: 1.58 µM
SN12C renal
  TGI: 2.05 µM
SNB-19 CNS
  TGI: 1.91 µM
SW-620 colon
  TGI: 2.31 µM
TK-10 renal
  TGI: 1.8 µM
U251 CNS
  TGI: 1.56 µM
UACC-62 melanoma
  TGI: 0.324 µM
UO-31 renal
  TGI: 1.05 µM
